# From patent US12410160B2 (Gilead Sciences, Inc., priority 2021, dated 2025)
# Tests used:
# human KHK-A = human KHK-A (Homo sapiens (Human), UniProt P50053); test: KHK Biochemical Assay (IC50), ADP-Glo, KHK-A; conditions: ADP-Glo; average of at least two separate assays
# Outline: (§1)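 Luminescent ADP-Glo read-out of ADP made by His-tagged KHK (BL21 (DE3) expression, Ni-NTA). Enzyme and compound sat together 30 min before ATP/fructose addition, then reacted 4 h at RT in Hepes pH 7.4 buffer with KCl, MgCl2, Triton-X. Quench 1 h, detection 1 h.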
# human KHK-C = human KHK-C (Homo sapiens (Human), UniProt P50053); test: KHK Biochemical Assay (IC50), ADP-Glo, KHK-C; conditions: ADP-Glo; average of at least two separate assays
# Outline: as §1
# [1] = target: KHK-C expressed in NRK-52E cells (Homo sapiens (Human), UniProt P50053); test: KHK-C Cell-based Assay (EC50), NRK CTG, fructose-mediated ATP-depletion
# KHK-C expressed in NRK-52E cells, sequence (P50053 whole entry): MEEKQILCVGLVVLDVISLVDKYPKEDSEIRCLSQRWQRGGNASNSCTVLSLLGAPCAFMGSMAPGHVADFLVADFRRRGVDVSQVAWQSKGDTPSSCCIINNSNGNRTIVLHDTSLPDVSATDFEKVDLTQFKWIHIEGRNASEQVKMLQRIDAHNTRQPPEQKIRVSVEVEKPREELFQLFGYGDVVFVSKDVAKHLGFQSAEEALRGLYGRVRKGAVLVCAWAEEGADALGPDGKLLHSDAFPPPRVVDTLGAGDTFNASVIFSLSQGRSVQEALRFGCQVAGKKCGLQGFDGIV
# human KHK-A, sequence (P50053 other isoform, or with tags, fused parts or gaps): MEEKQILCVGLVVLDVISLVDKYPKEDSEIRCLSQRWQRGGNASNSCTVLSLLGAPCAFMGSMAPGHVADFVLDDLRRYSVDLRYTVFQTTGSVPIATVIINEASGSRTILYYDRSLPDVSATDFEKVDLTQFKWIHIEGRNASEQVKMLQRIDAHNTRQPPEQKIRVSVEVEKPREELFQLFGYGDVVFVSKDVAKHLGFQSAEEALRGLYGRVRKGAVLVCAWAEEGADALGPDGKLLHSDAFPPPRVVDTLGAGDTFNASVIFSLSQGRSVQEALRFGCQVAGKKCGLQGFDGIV
# human KHK-C, sequence (P50053 whole entry): as the sequence (P50053 whole entry) above
SMILES,IC50 (human KHK-A) [nM],IC50 (human KHK-C) [nM],EC50 [1] [nM]
"C[C@H]1CCN1c1nc2c(c(-c3ccc4c(c3)OCCNC4=O)n1)CCC2 [Example 149, (S)-8-(2-(2-methylazetidin-1-yl)-6,7-dihydro-5H-cyclopenta[d]pyrimidin-4-yl)-3,4-dihydrobenzo[f][1,4]oxazepin-5(2H)-one]",33.2,6.7,18.8
"C[C@H]1CCN1c1nc2c(c(-c3ccc4c(c3)C(=O)NCCO4)n1)CCC2 [Example 150, (S)-7-(2-(2-methylazetidin-1-yl)-6,7-dihydro-5H-cyclopenta[d]pyrimidin-4-yl)-3,4-dihydrobenzo[f][1,4]oxazepin-5(2H)-one]",32.2,33.1,73.2
"C[C@H]1CCN1c1nc2c(c(-c3cc4ccccc4[nH]3)n1)CCC2 [Example 151, (S)-4-(1H-indol-2-yl)-2-(2-methylazetidin-1-yl)-6,7-dihydro-5H-cyclopenta[d]pyrimidine]",4980,3890,1360
"C[C@H]1CCN1c1nc2c(c(-c3cc4cc(C(N)=O)ccc4[nH]3)n1)CCC2 [Example 152, (S)-2-(2-(2-methylazetidin-1-yl)-6,7-dihydro-5H-cyclopenta[d]pyrimidin-4-yl)-1H-indole-5-carboxamide]",63.6,94,200
"C[C@H]1CCN1c1nc2c(c(-c3cc4cc(C(=O)O)ccc4[nH]3)n1)CCC2 [Example 153, (S)-2-(2-(2-methylazetidin-1-yl)-6,7-dihydro-5H-cyclopenta[d]pyrimidin-4-yl)-1H-indole-5-carboxylic acid]",186,66.6,4000
"C[C@H]1CCN1c1nc2c(c(-c3cc4cccc(C(N)=O)c4[nH]3)n1)CCC2 [Example 154, (S)-2-(2-(2-methylazetidin-1-yl)-6,7-dihydro-5H-cyclopenta[d]pyrimidin-4-yl)-1H-indole-7-carboxamide]",45.8,90.4,34
"C[C@H]1CCN1c1nc2c(c(-c3cc4c(C(=O)O)cccc4[nH]3)n1)CCC2 [Example 155, (S)-2-(2-(2-methylazetidin-1-yl)-6,7-dihydro-5H-cyclopenta[d]pyrimidin-4-yl)-1H-indole-4-carboxylic acid]",232,99.5,4790
"C[C@H]1CCN1c1nc2c(c(-c3cc4c(C(N)=O)cccc4[nH]3)n1)CCC2 [Example 156, (S)-2-(2-(2-methylazetidin-1-yl)-6,7-dihydro-5H-cyclopenta[d]pyrimidin-4-yl)-1H-indole-4-carboxamide]",99.9,82,145
"C[C@H]1CCN1c1nc(-c2ccc(C(N)=O)cc2)c2c(n1)C(F)(F)CCC2 [Example 157, (S)-4-(8,8-difluoro-2-(2-methylazetidin-1-yl)-5,6,7,8-tetrahydroquinazolin-4-yl)benzamide]",125,211,291
C[C@H]1[C@H](O)CN1c1nc(-c2ccc(C(N)=O)cc2)c2c(n1)C(F)(F)CCC2 [Example 158],217,314,1120
"C[C@H]1CCN1c1nc2c(c(-c3ccc4nc(O)ccc4c3)n1)CCC2 [Example 175, (S)-6-(2-(2-methylazetidin-1-yl)-6,7-dihydro-5H-cyclopenta[d]pyrimidin-4-yl)quinolin-2-ol]",66.5,49.8,249
"C[C@H]1CCN1c1nc2c(c(-c3ccc4[nH]c(C(N)=O)cc4c3)n1)CCC2 [Example 184, 5-[2-[(2S)-2-methylazetidin-1-yl]-6,7-dihydro-5H-cyclopenta[d]pyrimidin-4-yl]-1H-indole-2-carboxamide]",152,210,275
"C[C@H]1CCN1c1nc2c(c(-c3ccc(-c4ncc[nH]4)cc3)n1)CCC2 [Example 185, 4-[4-(1H-imidazol-2-yl)phenyl]-2-[(2S)-2-methylazetidin-1-yl]-6,7-dihydro-5H-cyclopenta[d]pyrimidine]",60.6,48.8,83.9
"C[C@H]1CCN1c1nc2c(c(-c3ccc4c(c3)CN(C)C4=O)n1)CCC2 [Example 186, 2-methyl-5-[2-[(2S)-2-methylazetidin-1-yl]-6,7-dihydro-5H-cyclopenta[d]pyrimidin-4-yl]isoindolin-1-one]",78.2,66.9,143
"C[C@H]1CCN1c1nc2c(c(-c3ccc4c(c3)CNC4=O)n1)CCC2 [Example 187, 5-[2-[(2S)-2-methylazetidin-1-yl]-6,7-dihydro-5H-cyclopenta[d]pyrimidin-4-yl]isoindolin-1-one]",33.3,22.4,91.6
"C[C@H]1CCN1c1nc2c(c(-c3ccc(S(N)(=O)=O)cc3)n1)CCC2 [Example 189, 4-[2-[(2S)-2-methylazetidin-1-yl]-6,7-dihydro-5H-cyclopenta[d]pyrimidin-4-yl]benzenesulfonamide]",81.6,61.7,112

SMILES,IC50 (human KHK-A) [nM],IC50 (human KHK-C) [nM],EC50 [1] [nM]
"C[C@H]1CCN1c1nc2c(c(-c3cccc(C(C)(C)N)c3)n1)CCC2 [Example 190, 2-[3-[2-[(2S)-2-methylazetidin-1-yl]-6,7-dihydro-5H-cyclopenta[d]pyrimidin-4-yl]phenyl]propan-2-amine]",48.7,40.8,28.1
"C[C@H]1[C@H](O)CN1c1nc2c(c(-c3ccc(-c4ncc[nH]4)cc3)n1)CCC2 [Example 193, (2S,3R)-1-[4-[4-(1H-imidazol-2-yl)phenyl]-6,7-dihydro-5H-cyclopenta[d]pyrimidin-2-yl]-2-methyl-azetidin-3-ol]",73.4,97.8,412
"C[C@H]1[C@H](O)CN1c1nc2c(c(-c3ccc4c(c3)CNC4=O)n1)CCC2 [Example 196, 5-[2-[(2S,3R)-3-hydroxy-2-methyl-azetidin-1-yl]-6,7-dihydro-5H-cyclopenta[d]pyrimidin-4-yl]isoindolin-1-one]",136,86.7,367
"C[C@H]1[C@H](F)CN1c1nc2c(c(-c3ccc(C(N)=O)cc3)n1)CCC2 [Example 200, 4-[2-[(2S,3R)-3-fluoro-2-methyl-azetidin-1-yl]-6,7-dihydro-5H-cyclopenta[d]pyrimidin-4-yl]benzamide]",14.9,10.9,49.3
"C[C@H]1[C@H](F)CN1c1nc2c(c(-c3ccc(CN)cc3)n1)CCC2 [Example 201, [4-[2-[(2S,3R)-3-fluoro-2-methyl-azetidin-1-yl]-6,7-dihydro-5H-cyclopenta[d]pyrimidin-4-yl]phenyl]methanamine]",2.9,1.7,130
"C[C@H]1[C@H](O)CN1c1nc2c(c(-c3ccc(CN)cc3)n1)CCC2 [Example 202, (2S,3R)-1-[4-[4-(aminomethyl)phenyl]-6,7-dihydro-5H-cyclopenta[d]pyrimidin-2-yl]-2-methyl-azetidin-3-ol]",9.8,7.7,111
C[C@H]1[C@H](O)CN1c1nc2c(c(-c3ccc4c(c3)C(=O)N(C)C4)n1)CCC2 [Example 204],118,37.2,109
C[C@H]1CCN1c1nc2c(c(-c3ccc4c(c3)C(=O)NC4)n1)CCC2 [Example 207],23.2,28.2,55.8
"C[C@H]1C[C@H](C)N1c1nc2c(c(-c3cccc(S(N)(=O)=O)c3)n1)CCC2 [Example 208, 3-[2-[(28,48)-2,4-dimethylazetidin-1-yl]-6,7-dihydro-5H-cyclopenta[d]pyrimidin-4-yl]benzenesulfonamide]",36.7,46.6,36.4
C[C@H]1[C@H](F)CN1c1nc2c(c(-c3cccc(S(N)(=O)=O)c3)n1)CCC2 [Example 210],17.6,19.7,38.2
"C[C@H]1CCN1c1nc(-c2ccccc2)c2c(ncn2C)n1 [Example 211, 7-methyl-2-[(2S)-2-methylazetidin-1-yl]-6-phenyl-purine]",7310,4760,> 50000
"C[C@H]1CCN1c1nc2c(c(-c3cnc(C(C)(C)O)s3)n1)CCC2 [Example 213, 2-[5-[2-[(2S)-2-methylazetidin-1-yl]-6,7-dihydro-5H-cyclopenta[d]pyrimidin-4-yl]thiazol-2-yl]propan-2-ol]",52.6,33.3,52.5
"C[C@H]1CCN1c1nc2c(c(-c3cccc(C(=O)NCC(N)=O)c3)n1)CCC2 [Example 216, N-(2-amino-2-oxo-ethyl)-3-[2-[(2S)-2-methylazetidin-1-yl]-6,7-dihydro-5H-cyclopenta[d]pyrimidin-4-yl]benzamide]",37.8,38.4,390
"C[C@H]1CCN1c1nc2c(c(-c3cccc(C(=O)NCCC(=O)O)c3)n1)CCC2 [Example 217, 3-[[3-[2-[(2S)-2-methylazetidin-1-yl]-6,7-dihydro-5H-cyclopenta[d]pyrimidin-4-yl]benzoyl]amino]propanoic acid]",130,90.3,> 5000
"C[C@H]1CCN1c1nc2c(c(-c3cccc(C(=O)NCCS(N)(=O)=O)c3)n1)CCC2 [Example 219, 3-[2-[(2S)-2-methylazetidin-1-yl]-6,7-dihydro-5H-cyclopenta[d]pyrimidin-4-yl]-N-(2-sulfamoylethyl)benzamide]",17.2,13.1,283
